Measured values from ChEMBL document CHEMBL4321837, “Discovery of Potent and Orally Effective Dual Janus Kinase 2/FLT3 Inhibitors for the Treatment of Acute Myelogenous Leukemia and Myeloproliferative Neoplasms” (J Med Chem, 2019).
Calls of active or inactive are those of the source. The calls are words filed in the database; no cut-off is given here.

Columns and labels:
MV4-11 [1] = test: Induction of apoptosis in human MV4-11 cells assessed as necrotic cells at 0.8 uM after 24 hrs by Annexin V FITC/PI staining based flow cytometry analysis (reference value: 0.18%); assay type: functional
CDK4/Cyclin D3 = CDK4/Cyclin D3 (Homo sapiens, UniProt P11802); test: Inhibition of recombinant full length human CDK4/CyclinD3 using Rb fragment as substrate incubated for 30 mins in presence of [gamma33P]-ATP by scintillation counting based radiometry assay; assay type: protein-complex assay
CDK4/Cyclin D3, sequence (P11802 whole entry, the tested form may be a part): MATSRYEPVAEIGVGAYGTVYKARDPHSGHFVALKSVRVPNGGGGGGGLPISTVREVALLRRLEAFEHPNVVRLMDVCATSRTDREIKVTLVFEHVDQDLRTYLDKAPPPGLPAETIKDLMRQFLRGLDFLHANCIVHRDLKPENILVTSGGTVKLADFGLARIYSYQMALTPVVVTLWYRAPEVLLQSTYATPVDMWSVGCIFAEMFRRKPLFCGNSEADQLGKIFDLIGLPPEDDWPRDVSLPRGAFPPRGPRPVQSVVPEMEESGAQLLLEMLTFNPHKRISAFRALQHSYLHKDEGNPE
CDK4/Cyclin D3, sequence (P30281 whole entry, further chain, the tested form may be a part): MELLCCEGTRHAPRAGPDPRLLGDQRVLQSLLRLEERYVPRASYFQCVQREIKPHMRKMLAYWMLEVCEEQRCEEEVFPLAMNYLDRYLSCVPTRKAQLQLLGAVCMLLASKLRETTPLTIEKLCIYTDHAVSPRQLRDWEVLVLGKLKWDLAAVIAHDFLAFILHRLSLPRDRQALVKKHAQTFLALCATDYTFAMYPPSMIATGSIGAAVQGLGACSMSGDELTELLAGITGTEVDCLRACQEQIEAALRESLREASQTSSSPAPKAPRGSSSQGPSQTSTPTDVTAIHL

HUVEC = test: Cytotoxicity against HUVEC assessed as cell viability after 72 hrs by MTT assay; assay type: cell-based; settings: human
MV4-11 [2] = test: Induction of apoptosis in human MV4-11 cells assessed as viable cells at 0.05 uM after 24 hrs by Annexin V FITC/PI staining based flow cytometry analysis (reference value: 96.3%); assay type: functional; settings: MV4-11, 24 h, read-out: Activity
MV4-11 [3] = test: Induction of cell cycle arrest in human MV4-11 cells assessed as accumulation at S phase at 0.1 uM after 24 hrs by propidium iodide staining based flow cytometry analysis (reference value: 30.11%); assay type: functional
MV4-11 [4] = test: Induction of apoptosis in human MV4-11 cells assessed as viable cells at 0.2 uM after 24 hrs by Annexin V FITC/PI staining based flow cytometry analysis (reference value: 96.3%); assay type: functional; settings: MV4-11, 24 h, read-out: Activity
Homo sapiens = species: Homo sapiens; test: Inhibition of JAK2 V617F mutant/FLT3 in human SET2 cells assessed as reduction in STAT5 phosphorylation at 0.2 uM after 2 hrs by Western blot analysis; assay type: cell-based
[5] = biological target: Voltage-gated inwardly rectifying potassium channel KCNH2 (Homo sapiens, UniProt Q12809); test: Inhibition of human ERG
Voltage-gated inwardly rectifying potassium channel KCNH2, sequence (Q12809 whole entry): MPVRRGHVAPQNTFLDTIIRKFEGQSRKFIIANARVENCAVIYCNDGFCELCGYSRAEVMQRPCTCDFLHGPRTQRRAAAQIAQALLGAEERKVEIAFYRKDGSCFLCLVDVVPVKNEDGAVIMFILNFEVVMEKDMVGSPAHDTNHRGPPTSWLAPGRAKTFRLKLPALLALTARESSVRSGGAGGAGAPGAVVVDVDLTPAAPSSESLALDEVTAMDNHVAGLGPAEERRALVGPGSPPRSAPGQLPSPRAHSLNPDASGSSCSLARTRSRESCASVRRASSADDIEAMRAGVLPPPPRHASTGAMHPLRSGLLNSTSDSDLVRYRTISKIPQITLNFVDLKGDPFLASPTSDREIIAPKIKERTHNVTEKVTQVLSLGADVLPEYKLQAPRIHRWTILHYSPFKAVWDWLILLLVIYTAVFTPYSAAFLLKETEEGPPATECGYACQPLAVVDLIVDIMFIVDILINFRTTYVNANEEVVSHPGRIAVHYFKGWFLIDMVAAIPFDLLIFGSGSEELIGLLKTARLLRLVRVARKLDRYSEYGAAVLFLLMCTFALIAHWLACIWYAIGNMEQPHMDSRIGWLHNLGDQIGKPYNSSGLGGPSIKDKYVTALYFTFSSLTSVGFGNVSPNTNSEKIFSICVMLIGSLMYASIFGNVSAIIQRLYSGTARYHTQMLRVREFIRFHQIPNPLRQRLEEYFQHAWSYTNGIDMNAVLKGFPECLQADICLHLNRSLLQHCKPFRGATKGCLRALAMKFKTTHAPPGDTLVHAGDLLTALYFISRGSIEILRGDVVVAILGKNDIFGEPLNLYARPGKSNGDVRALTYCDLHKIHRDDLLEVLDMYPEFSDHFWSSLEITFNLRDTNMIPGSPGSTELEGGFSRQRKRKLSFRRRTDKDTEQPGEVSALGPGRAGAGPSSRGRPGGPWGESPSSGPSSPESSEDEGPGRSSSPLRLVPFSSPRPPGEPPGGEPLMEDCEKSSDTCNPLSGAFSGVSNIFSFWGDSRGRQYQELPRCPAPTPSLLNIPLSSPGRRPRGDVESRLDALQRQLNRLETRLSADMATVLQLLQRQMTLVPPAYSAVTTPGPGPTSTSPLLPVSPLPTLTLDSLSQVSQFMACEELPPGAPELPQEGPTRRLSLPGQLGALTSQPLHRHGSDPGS

SET-2 [6] = test: Antitumor activity against human SET2 cells overexpressing JAK2 V617F mutant xenografted in NOD/SCID mouse assessed as tumor growth inhibition at 60 mg/kg, po qd for 18 days measured every 2 days for 18 days by caliper method relative to control; assay type: functional; settings: SET-2, po, read-out: TGI
Cytochrome P450 2E1 = Cytochrome P450 2E1 (Homo sapiens, UniProt P05181); test: Inhibition of CYP2E1 (unknown origin); assay type: ADME
Cytochrome P450 2E1, sequence (P05181 whole entry): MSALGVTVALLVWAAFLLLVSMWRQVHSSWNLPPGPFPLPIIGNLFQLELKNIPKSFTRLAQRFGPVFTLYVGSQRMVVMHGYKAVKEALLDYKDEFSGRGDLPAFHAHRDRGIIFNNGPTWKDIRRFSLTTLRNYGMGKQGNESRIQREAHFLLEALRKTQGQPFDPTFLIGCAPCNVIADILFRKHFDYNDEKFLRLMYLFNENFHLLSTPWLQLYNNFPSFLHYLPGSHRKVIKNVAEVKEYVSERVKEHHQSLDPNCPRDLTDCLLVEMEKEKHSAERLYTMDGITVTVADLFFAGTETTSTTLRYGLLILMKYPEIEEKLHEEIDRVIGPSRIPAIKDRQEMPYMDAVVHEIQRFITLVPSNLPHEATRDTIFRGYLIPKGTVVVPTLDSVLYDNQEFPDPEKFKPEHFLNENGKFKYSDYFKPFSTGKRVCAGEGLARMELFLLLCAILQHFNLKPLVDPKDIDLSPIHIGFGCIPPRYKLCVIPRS

MV4-11 [7] = test: Induction of cell cycle arrest in human MV4-11 cells assessed as accumulation at G0/G1 phase at 0.005 uM after 24 hrs by propidium iodide staining based flow cytometry analysis (reference value: 54.49%); assay type: functional
[8] = Tmax in Sprague-Dawley rat at 5 mg/kg, po measured up to 24 hrs by LC/MS/MS analysis; assay type: ADME, organism-based; settings: in vivo, 24 h
L02 = test: Cytotoxicity against human LO2 cells assessed as cell viability after 72 hrs by MTT assay; assay type: cell-based; settings: l02, 72 h
[9] = biological target: Tyrosine-protein kinase JAK1 (Homo sapiens, UniProt P23458); test: Inhibition of JAK1 in human PBMC cells assessed as reduction in IL-6-induced STAT3 phosphorylation by flow cytometry; assay type: cell-based
Tyrosine-protein kinase JAK1, sequence (P23458 whole entry): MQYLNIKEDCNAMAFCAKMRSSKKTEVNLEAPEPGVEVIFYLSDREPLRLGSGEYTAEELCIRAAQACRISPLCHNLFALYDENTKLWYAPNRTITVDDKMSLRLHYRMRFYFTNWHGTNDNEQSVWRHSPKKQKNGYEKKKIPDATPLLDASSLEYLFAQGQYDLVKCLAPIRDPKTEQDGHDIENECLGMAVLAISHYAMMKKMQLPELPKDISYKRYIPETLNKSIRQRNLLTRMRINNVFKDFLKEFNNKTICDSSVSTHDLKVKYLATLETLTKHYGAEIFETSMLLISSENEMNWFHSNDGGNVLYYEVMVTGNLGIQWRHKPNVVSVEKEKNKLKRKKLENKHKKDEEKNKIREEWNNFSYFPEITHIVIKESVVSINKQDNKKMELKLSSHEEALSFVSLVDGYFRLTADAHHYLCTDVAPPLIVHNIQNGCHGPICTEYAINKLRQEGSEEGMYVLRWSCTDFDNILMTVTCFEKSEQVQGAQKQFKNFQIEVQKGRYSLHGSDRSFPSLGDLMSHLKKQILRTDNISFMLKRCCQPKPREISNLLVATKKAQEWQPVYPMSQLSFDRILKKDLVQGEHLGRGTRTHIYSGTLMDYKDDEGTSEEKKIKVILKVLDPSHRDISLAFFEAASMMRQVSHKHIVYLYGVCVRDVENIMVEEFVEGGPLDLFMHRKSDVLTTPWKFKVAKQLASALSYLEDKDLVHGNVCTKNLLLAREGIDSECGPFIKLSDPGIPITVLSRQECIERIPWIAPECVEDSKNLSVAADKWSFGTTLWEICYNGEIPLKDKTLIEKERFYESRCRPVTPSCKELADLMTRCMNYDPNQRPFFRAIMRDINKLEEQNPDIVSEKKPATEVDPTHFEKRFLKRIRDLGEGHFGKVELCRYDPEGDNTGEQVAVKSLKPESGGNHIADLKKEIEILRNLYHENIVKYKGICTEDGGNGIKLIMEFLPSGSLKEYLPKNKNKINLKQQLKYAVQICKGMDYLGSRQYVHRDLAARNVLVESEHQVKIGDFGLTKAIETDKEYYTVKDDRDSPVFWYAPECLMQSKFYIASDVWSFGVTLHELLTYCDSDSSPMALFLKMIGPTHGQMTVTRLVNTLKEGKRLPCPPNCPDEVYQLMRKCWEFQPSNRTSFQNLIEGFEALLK

Cytochrome P450 2C9 = Cytochrome P450 2C9 (Homo sapiens, UniProt P11712); test: Inhibition of CYP2C9 (unknown origin); assay type: ADME
Cytochrome P450 2C9, sequence (P11712 whole entry): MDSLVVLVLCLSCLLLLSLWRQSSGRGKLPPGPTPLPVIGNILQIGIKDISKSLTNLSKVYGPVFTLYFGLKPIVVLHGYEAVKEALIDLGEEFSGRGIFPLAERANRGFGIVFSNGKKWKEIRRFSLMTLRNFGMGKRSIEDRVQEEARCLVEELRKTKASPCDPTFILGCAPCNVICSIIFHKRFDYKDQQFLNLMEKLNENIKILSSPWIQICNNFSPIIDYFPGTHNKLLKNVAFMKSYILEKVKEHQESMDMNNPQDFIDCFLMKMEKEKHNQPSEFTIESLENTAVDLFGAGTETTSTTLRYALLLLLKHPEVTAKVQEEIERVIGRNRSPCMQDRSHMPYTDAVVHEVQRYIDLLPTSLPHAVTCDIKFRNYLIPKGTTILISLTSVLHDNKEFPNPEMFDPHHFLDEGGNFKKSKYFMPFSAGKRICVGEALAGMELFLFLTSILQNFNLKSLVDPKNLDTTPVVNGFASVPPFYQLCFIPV

MV4-11 [10] = test: Induction of apoptosis in human MV4-11 cells assessed as late apoptotic cells at 1.6 uM after 24 hrs by Annexin V FITC/PI staining based flow cytometry analysis (reference value: 1.38%); assay type: functional
MV4-11 [11] = test: Induction of apoptosis in human MV4-11 cells assessed as early apoptotic cells at 0.8 uM after 24 hrs by Annexin V FITC/PI staining based flow cytometry analysis (reference value: 2.14%); assay type: functional
MV4-11 [12] = test: Induction of cell cycle arrest in human MV4-11 cells assessed as accumulation at G0/G1 phase at 0.1 uM after 24 hrs by propidium iodide staining based flow cytometry analysis (reference value: 54.49%); assay type: functional
SET-2 [13] = test: Antitumor activity against human SET2 cells overexpressing JAK2 V617F mutant xenografted in NOD/SCID mouse assessed as tumor growth inhibition at 30 mg/kg, po qd for 18 days measured every 2 days for 18 days by caliper method relative to control; assay type: functional; settings: SET-2, po, read-out: TGI
[14] = biological target: Receptor-type tyrosine-protein kinase FLT3 (Homo sapiens, UniProt P36888, D835Y); test: Inhibition of recombinant human FLT3 D835Y mutant (564 to end residues) using EAIYAAPFAKKK as substrate incubated for 40 mins in presence of [gamma33P]-ATP by scintillation counting based radiometry assay
[15] = biological target: T1, Tyrosine-protein kinase JAK3 (Homo sapiens, UniProt P52333); test: Inhibition of human JAK3 (781 to end residues) using GGEEEEYFELVKK as substrate after 40 mins in presence of [gamma33P]-ATP by scintillation counting based radiometric assay
T1 sequence (P52333 whole entry): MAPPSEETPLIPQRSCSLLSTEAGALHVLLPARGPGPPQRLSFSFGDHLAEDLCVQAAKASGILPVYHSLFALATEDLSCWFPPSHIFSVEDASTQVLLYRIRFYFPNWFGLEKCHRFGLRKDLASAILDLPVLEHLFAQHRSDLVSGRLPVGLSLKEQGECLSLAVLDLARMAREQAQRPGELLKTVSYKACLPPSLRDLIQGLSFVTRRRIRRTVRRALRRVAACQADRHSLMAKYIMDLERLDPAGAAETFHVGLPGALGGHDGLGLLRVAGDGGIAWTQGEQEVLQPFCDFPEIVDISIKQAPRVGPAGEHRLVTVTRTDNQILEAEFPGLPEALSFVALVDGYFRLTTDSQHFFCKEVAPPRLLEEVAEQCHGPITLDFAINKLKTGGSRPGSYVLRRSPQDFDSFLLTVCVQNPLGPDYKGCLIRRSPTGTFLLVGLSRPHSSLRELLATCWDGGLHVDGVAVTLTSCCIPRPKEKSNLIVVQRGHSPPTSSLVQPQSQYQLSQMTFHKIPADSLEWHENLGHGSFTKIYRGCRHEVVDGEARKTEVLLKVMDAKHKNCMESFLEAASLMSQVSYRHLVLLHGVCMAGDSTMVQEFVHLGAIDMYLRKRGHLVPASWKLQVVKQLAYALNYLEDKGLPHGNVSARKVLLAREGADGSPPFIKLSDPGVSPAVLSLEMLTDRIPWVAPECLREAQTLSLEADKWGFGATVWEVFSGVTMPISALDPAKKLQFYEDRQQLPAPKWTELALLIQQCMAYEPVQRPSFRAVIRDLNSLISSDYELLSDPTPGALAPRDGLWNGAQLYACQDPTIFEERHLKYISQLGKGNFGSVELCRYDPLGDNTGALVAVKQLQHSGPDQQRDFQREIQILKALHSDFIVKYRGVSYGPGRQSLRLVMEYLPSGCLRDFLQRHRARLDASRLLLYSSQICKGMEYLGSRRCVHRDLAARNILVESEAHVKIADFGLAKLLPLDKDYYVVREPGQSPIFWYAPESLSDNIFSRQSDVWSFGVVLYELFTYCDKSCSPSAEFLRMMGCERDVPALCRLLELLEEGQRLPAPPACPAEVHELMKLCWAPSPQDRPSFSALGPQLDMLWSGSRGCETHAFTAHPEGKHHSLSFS

[16] = Intrinsic clearance in human liver microsomes; assay type: ADME, Microsome
[17] = Intrinsic clearance in dog liver microsomes; assay type: ADME, Canis lupus familiaris, Microsome

Structure (SMILES): Cc1cnc(Nc2ccc(N3CCC(N(C)CCO)CC3)c(F)c2)nc1-c1cnn(C(C)C)c1
- Activity (MV4-11 [1]): 0.93%
- IC50 (CDK4/Cyclin D3): 18 nM
- Activity (HUVEC): Non-Toxic
- viability at 0.05 µM (MV4-11 [2]): 89.6%
- Activity (MV4-11 [3]): 10.26%
- viability at 0.2 µM (MV4-11 [4]): 77.4%
- inhibition (Homo sapiens): Active
- IC50 [5]: 28000 nM
- inhibition in vivo at 60 mg/kg (SET-2 [6]): 85%
- IC50 (Cytochrome P450 2E1): > 100000 nM
- Activity (MV4-11 [7]): 55.92%
- Tmax [8]: 1.5 h
- Activity (L02): Non-Toxic
- IC50 [9]: 94.2 nM
- IC50 (Cytochrome P450 2C9): 78100 nM
- Activity (MV4-11 [10]): 40.9%
- Activity (MV4-11 [11]): 23.4%
- Activity (MV4-11 [12]): 84.71%
- inhibition in vivo at 30 mg/kg (SET-2 [13]): 66%
- IC50 [14]: 4 nM
- IC50 [15]: 39 nM
- CLH [16]: 2.4 µL/min/mg
- CLH [17]: 3.7 µL/min/mg
